Results on 6 compounds are retold here after patent US5494813A, “Nematode control with proteinase inhibitors” (Nickerson Biocem Limited, priority 1991, dated 1996).

“Also recorded” adds a separate entry of the source. Some results are limits rather than exact numbers.

The subject of test [1] is proteolytic activity of the 5HT-induced exudate from J2. Kind of test: Proteolytic activity of the 5HT-induced exudate from J2 of G. pallida (biotin/gelatin microtitre plate assay). The format is biochemical, Globodera pallida. As to conditions: for Relative Activity (% of controls at that pH), pH 5 / Relative Activity (% of controls at that pH), pH 6.8: CpTi 10 μg/ml, rice preparations 30 μg/ml, other concentrations not given; for Relative Activity (% of controls at that pH), pH 6.8: maize preparation 20 μg/ml. How it is done:
Freshly hatched juveniles of G. pallida were incubated in 2.5 mM 5'hydroxytryptamine in water at 20° C. for 4 h. This caused material to exude from the mouth which can be visualized at the mouth by allowing the protein stain Ponceau S to diffuse through a small aliquot of the experimental sample containing the nematodes under a microscope slide and coverslip. Worms were removed from the medium by centrifugation at 3000 g for 2 min before the fluid was dialyzed at 4° C. against distilled water overnight. The material was freeze-dried in aliquots at -70° C. until use and reconstituted to 2.5 μg protein/ml dH2 O at 5° C. immediately before use. Assays were carried out in a reaction mixture prepared by mixing 50 μl of this solution with 20 μl of either 100 mM phosphate buffer at pH 6.8 or 100 mM titrate/phosphate buffer at pH 5 plus either 10 μl of the inhibitor under test at the concentrations given in Table 7 or dH2 O for corresponding control rates for the uninhibited exudate.
The assays were carried out by coating microtitre plates (NUNC) with 50 μl of 0.01 μg/ml biotin/gelatin in carbonate buffer (pH 9.6) overnight at 4° C. The plates were blocked with 1% gelatin and washed with PBS before adding 75 μl of freshly prepared reaction mixture for 18 h. The reaction was stopped by washing wells eight times with PBS-tween before adding 100 μl of avidin-conjugated alkaline phosphatase with 1% goat serum to each well for 1 h. The wells were washed as before with PBS-tween followed by 2 rinses in PBS before addition of 100 μl of 1 mg/ml P-nitrophenyl phosphate in substrate buffer (10% diethanolamine and 0.5 mM MgCl2) at pH 9.8. The color development was read at 405 nm using a plate reader (Biorad). All samples were compared against a reference blank which lacked nematode exudate preparation in the reaction mixture.

The subject of test [2] is endoproteinase activity of G. pallida. Briefly: Endoproteinase activity of G. pallida female homogenate on RUBISCO with inhibitors/activators (SDS-PAGE densitometry). As to conditions: RUBISCO substrate; for % enzyme activity: pH 5.7, 25 C, mean ± SEM, control 100 ± 7, 30 min. Format: biochemical, Globodera pallida. The procedure:
Females of G. pallida were removed from potato roots and homogenised in EDTA (1 mm)-NaOH buffered distilled water (pH 6.0). The nematode homogenate was clarified by centrifugation at 13,000 g for 2 min and passed through non-absorbent cotton wool. The filtrate was used directly as the source of crude proteinases. pH was controlled using 0.1M of citrate-phosphate, sodium-phosphate and phosphate-carbonate buffers for pH 3.0-6.0, pH 6.5-7.5 and 8.0-8.5 respectively. These buffers were mixed with equal volume of the nematode homogenate and RUBISCO (150 μg) in 0.04% SDS resulting in a final reaction volume of 75 μl . […] The tubes were kept on ice for 30 min for full precipitation to occur. The supernatant was clarified by centrifugation (13,000 g, 2 min). The liberation of TCA-soluble amino groups from digested RUBISCO was used to quantify the proteolytic activity of nematode homogenates using 2, 4,6-trinitrobenzsulphonic acid (TNBS). TNBS reagent was made by mixing one volume of 0.3% (w/v) TNBS in water with four volume of 4% (w/v) sodium tetraborate in 0.15M NaOH. 250 μl of the reagent was mixed with 75 μl of sample and the reaction was allowed to proceed for 60 min at 30° C. before terminating by adding […] of 0.5M HCl. The absorbance at 340 nm was read against both homogenate and RUBISCO controls. Results are expressed as nmol of TCA-soluble amino groups liberated per min at 25° C. using a standard curve based on L-leucine in CP buffer.
Subsequent work was based on pH 5.7 using CP buffer. Females of G. pallida were rinsed in 50 mM CP buffer plus 1 mM EDTA and homogenised in ice-cold 50 mM CP buffer, centrifuging and filtering as before. The EDTA wash step was omitted for experiments using inhibitors or activators (see below).
25 μl of RUBISCO (from a stock solution in CP buffer of 1 mg/ml containing 0.04% SDS) was added to 20 μl of the sample homogenate and either 5 μl CP buffer or 5 μl of inhibitor/activator. After incubation for 60 min, the reaction was stopped by adding 30 μl of denaturing buffer and boiling for 2.5 min.
Stock inhibitor and activator solutions (Table 3) were made up in buffer and added to the nematode extract. The inhibitor/activator was pre-incubated with the enzyme solutions for 30 min at 25° C. before addition to the protein substrate
The gel was stained using Coomassie Brilliant Blue.
In order to elucidate the effect of activators and inhibitors on the proteolytic activity of nematode proteinase(s), RUBISCO was treated with the extract at 25 C. at a substrate protein-nematode protein ratio (w/w) of 8. After a 30 min incubation, the reaction mixture was terminated and analysed by SDS-PAGE. The RUBISCO substrate band in the gel was quantified densitometrically (Joyce Loble Chromscan 3), and the amount of protein remaining gave an estimation of the rate of activity of the proteinase.

In the case of `CC(C)C[C@H](NC(=O)[C@H]1O[C@@H]1C(=O)O)C(=O)NCCCCN=C(N)N` [E-64, L-trans-epoxysuccinyl-leucylamide-(4-guanidino)-butane], in test [1], the “Effect on proteolytic activity of the exudate at pH 5 (in words)” value (shortened to “Effect … at pH 5 (in words)”) is reported as “inhibited” and the “Relative Activity (% of controls at that pH), pH 5” value was 0%. In test [1] (pH 6.8), the “Relative Activity (% of controls at that pH), pH 6.8” value came to 5%. Further, the “Inhibition of proteolytic activity” value in test [2] (pH 5.7) came to 21%. Moreover, the “% enzyme activity” value in test [2] was 79 ± 6%.

For the compound p-aminomercuribenzoate [PAMBA], the “Effect on endoproteinase activity (in words)” value in test [2] (pH 5.7) was “potent inhibitor; also recorded: almost total inhibition”. Further, the “% enzyme activity” value in test [2] stood at 3 ± 4%.

Regarding `N[C@@H](CS)C(=O)O` [Cys, cysteine], in test [1], the “Effect … at pH 5 (in words)” value is listed as “stimulated” and the “Relative Activity (% of controls at that pH), pH 5” value was greater than 100%. For the same compound, the “Relative Activity (% of controls at that pH), pH 6.8” value in test [1] (pH 6.8) is on record as 100%. Further, the “Effect on endoproteinase activity (in words)” value in test [2] (pH 5.7) is “stimulated”. Moreover, the “% enzyme activity” value in test [2] came to 112 ± 5%.

For the compound `O=C(O)CN(CCN(CC(=O)O)CC(=O)O)CC(=O)O` [EDTA], in test [1], the “Effect … at pH 5 (in words)” value is listed as “stimulated” and the “Relative Activity (% of controls at that pH), pH 5” value is reported as greater than 100%. For the same compound, in test [1] (pH 6.8), the “Effect on proteolytic activity of the exudate at pH 6.8 (in words)” value is recorded as “inhibited” and the “Relative Activity (% of controls at that pH), pH 6.8” value came to 93%.

Take `CC(=O)[O][Hg][c]1ccccc1` [PMA]: the “Effect on endoproteinase activity (in words)” value in test [2] (pH 5.7) is reported as “almost total inhibition”. The “% enzyme activity” value in test [2] is recorded as 11 ± 6%.

Regarding `OC(CS)C(O)CS` (centres unmarked) [DTT], the “Effect on endoproteinase activity (in words)” value in test [2] (pH 5.7) is “stimulated”. Also, the “% enzyme activity” value in test [2] is 128 ± 11%.
